Laboratory results as given in PMC12166061, “Crystallographic fragment screening reveals ligand hotspots in TRIM21 PRY-SPRY domain” (Communications Chemistry, 2025).
Like-named read-outs stand apart in the source and are kept apart here.

Assays:
Type in all cases: binding
[1] = target: T1, murine TRIM21 PRY-SPRY domain (Mus musculus, UniProt Q62191); assay: Differential scanning fluorimetry (DSF, ΔTm), mouse TRIM21 PRY-SPRY domain
T1 construct: mouse TRIM21 PRY-SPRY domain (residues V291-M470, UniProt-ID: Q62191); made in house; host or cells: E. coli BL21(DE3)
T1 sequence (Q62191 291-470): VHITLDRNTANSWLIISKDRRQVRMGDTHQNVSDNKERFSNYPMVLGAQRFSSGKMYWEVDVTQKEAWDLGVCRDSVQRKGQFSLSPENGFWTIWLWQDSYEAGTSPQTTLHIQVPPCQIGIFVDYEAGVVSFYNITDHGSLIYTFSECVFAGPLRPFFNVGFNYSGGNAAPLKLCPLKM
Procedure: (§1) Briefly, recombinant murine and human TRIM21 PRY-SPRY domain at a concentration of 8 μM were mixed with 2 mM compound in their respective SEC buffer. SYPRO Orange (5000×, Invitrogen) was added as a fluorescence probe (1 µl per mL). Subsequently, temperature-dependent protein unfolding profiles were measured using the QuantStudio™ 5 realtime PCR machine (Thermo Fisher). Excitation and emission filters were set to 465 nm and 590 nm, respectively. The temperature was raised with a step rate of 3 °C per minute. Data points were analysed with the internal software (Thermal Shift SoftwareTM Version 1.4, Thermo Fisher) using the Boltzmann equation to determine the inflection point of the transition curve.

[2] = target: T2, human TRIM21 PRY-SPRY domain (Homo sapiens, UniProt P19474); assay: Differential scanning fluorimetry (DSF, ΔTm), human TRIM21 PRY-SPRY domain
T2 construct: Human TRIM21 PRY-SPRY domain (residues V287-I465, UniProt-ID: P19474); His6 (N, cleaved yes); SUMO (N, cleaved yes); made in house; host or cells: E. coli BL21(DE3)
Procedure: as §1

His-mTRIM21 PRYSPRY = target: T3, His-mTRIM21 PRYSPRY (Mus musculus, UniProt Q62191); assay: SPR fragment screening and dose response, mouse TRIM21 PRY-SPRY
T3 construct: mouse TRIM21 PRY-SPRY domain (residues V291-M470, UniProt-ID: Q62191); made in house; host or cells: E. coli BL21(DE3)
T3 sequence (Q62191 291-470): T1 sequence (Q62191 291-470)
Procedure: (§2) His-mTRIM21 PRYSPRY and His-SUMO-hTRIM21 PRY-SPRY were immobilized onto flow channels (FC) FC2, FC3, and FC4 of a Series S sensor chip NTA (Cytiva). […] Proteins (10–20 µg mL^−1 in HBS-P+) were injected at 10 µL min^−1 to achieve response levels of 3500–4300 RU for mTRIM21 and 3600–4000 RU for hTRIM21. Flow channel 1 (FC1) was used as a reference surface. Surface deactivation and nickel stripping were achieved using 1 M ethanolamine and 350 mM ethylenediaminetetraacetic acid (EDTA), respectively.
(§3) Fragment screening was conducted by injecting 500 µM fragments diluted in running buffer (HBS-P+ with 1 mM TCEP and 2% (v/v) dimethyl sulfoxide (DMSO)) over all flow-channels for 30 s at 30 µL/min^−1. To account for surface drift, 50 µM of a control compound (Suramin) was injected every 15 fragment injections, and blank injections were performed every 5 fragments. Responses were analyzed by blank subtraction, reference subtraction (FC1), solvent correction, molecular weight adjustment, and drift correction using Biacore T200 Evaluation Software v3.2.1. The binding threshold for fragment hits was set based on the Suramin-binding response level.
The data was solvent-corrected, reference-subtracted (FC1), and blank-subtracted using the T200 Evaluation Software v3.2.1. Sensorgrams were subsequently replotted using Graphpad v.9 software.

[3] = target: T4, His-SUMO-hTRIM21 PRY-SPRY (Homo sapiens, UniProt P19474); assay: SPR fragment screening, human TRIM21 PRY-SPRY
T4 construct: Human TRIM21 PRY-SPRY domain (residues V287-I465, UniProt-ID: P19474); made in house; host or cells: E. coli BL21(DE3)
Procedure: as §2, §3

[4] = single dose 500 µM fragment, relative response, suramin reference threshold 100 relative RU

T2 sequence (P19474 287-465): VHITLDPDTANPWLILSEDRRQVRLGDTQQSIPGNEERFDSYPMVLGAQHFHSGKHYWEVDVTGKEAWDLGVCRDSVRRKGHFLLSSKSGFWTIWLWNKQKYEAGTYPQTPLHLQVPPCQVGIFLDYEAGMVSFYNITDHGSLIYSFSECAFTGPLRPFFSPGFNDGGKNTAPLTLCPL
T4 sequence (P19474 287-465): as above

| Compound | Tm-shift mTRIM21 [1] | Tm-Shift hTRIM21 [2] | SPR mTRIM21 (Response) (His-mTRIM21 PRYSPRY) | SPR hTRIM21 (Response) [3] | Tm-shift mTRIM21 ([1]; 2 mM compound, 8 μM protein) | Tm-Shift hTRIM21 ([2]; 2 mM compound, 8 μM protein) | SPR mTRIM21 (Response) (His-mTRIM21 PRYSPRY; [4]) | SPR hTRIM21 (Response) [3, 4] |
| --- | --- | --- | --- | --- | --- | --- | --- | --- |
| O=C(COC(F)F)N1CC2CCCC2C1 (centres unmarked) [Fragment Z2072621991] | 0 °C | -0.2 °C | 46.61 | 28.49 | – | – | – | – |
| CC1CN(C(=O)c2cnsn2)C(C)CO1 (centres unmarked) [Fragment Z768399682] | – | – | – | – | -0.3 °C | 0 °C | 24.2 | 20.05 |
| Nc1ccc(S(=O)(=O)Nc2ccccn2)cc1 [Fragment Z271004858] | – | – | – | – | -0.1 °C | -0.1 °C | 106.3 | 79.01 |
| Cc1c(Cl)cccc1NC(=O)[C@@H]1CCCO1 [Fragment Z1545312521] | – | – | – | – | -0.9 °C | -0.7 °C | 31.58 | 24.5 |
| CC(=O)NC1CNc2ccccc2C1 (centres unmarked) [Fragment Z1492796719] | – | – | – | – | -0.1 °C | -0.1 °C | 54.86 | 55.11 |
| COC1CN(S(=O)(=O)N2CCCC2)C1 [Fragment Z1343518214] | -0.1 °C | 0.2 °C | 38.32 | 34.32 | – | – | – | – |
| O=C(CN1CCCC1=O)Nc1nccs1 [Fragment Z79432418] | -0.4 °C | -0.3 °C | 63.39 | 61.55 | – | – | – | – |
| CC(=O)Nc1cc2c(cc1C)OCO2 [Fragment Z1635496816] | – | – | – | – | 0 °C | 0.1 °C | 140.9 | 148.8 |
| CC(CS(N)(=O)=O)c1ccccc1 (centres unmarked) [Fragment Z1407673036] | – | – | – | – | -0.3 °C | -0.4 °C | 43.51 | 47.04 |
| CC(O)c1cnn(C2CCCC2)c1 (centres unmarked) [Fragment Z2004563941] | – | – | – | – | -0.2 °C | 0 °C | 41.62 | 39.09 |
| CC(=O)N1CCCC(CNS(C)(=O)=O)C1 (centres unmarked) [Fragment Z438096750] | – | – | – | – | 0 °C | -0.2 °C | 42.61 | 40.93 |
| CC(=O)N1C[C@H]2CC[C@H]1c1ccccc12 [Fragment Z2017861827] | -0.7 °C | -0.2 °C | 37.47 | 47.45 | – | – | – | – |
| COC1CN(Cc2cncs2)CCC1C (centres unmarked) [Fragment Z1787761777] | – | – | – | – | -1.6 °C | -0.3 °C | -42.9 | -50.75 |
| Cc1cc(N2CCNCC2)nc(C)n1 [Fragment Z274575916] | – | – | – | – | 0 °C | 0.2 °C | 164.1 | 76.44 |
| O=C(NC1CC1)c1cnn2cccnc12 [Fragment Z285642082] | -0.3 °C | -0.2 °C | 44.74 | 43.71 | – | – | – | – |
| CC(=O)Nc1ccc(CN2CCOCC2)cc1 [Fragment Z57450788] | – | – | – | – | 0 °C | 0.4 °C | 64.68 | 43.78 |
| CN1CCC(Oc2cccc(F)c2)C1=O (centres unmarked) [Fragment Z1217960891] | – | – | – | – | -0.4 °C | -0.4 °C | 74.94 | 55.59 |
| CN(CC(=O)N1CCCCC1)S(C)(=O)=O [Fragment Z363071686] | -0.1 °C | -0.2 °C | 39.85 | 20.46 | – | – | – | – |
| CC(NS(C)(=O)=O)c1ccccc1Cl (centres unmarked) [Fragment Z133729708] | – | – | – | – | -0.8 °C | -0.7 °C | 60.52 | 74.68 |

| Compound | Tm-shift mTRIM21 [1] | Tm-Shift hTRIM21 [2] | SPR mTRIM21 (Response) (His-mTRIM21 PRYSPRY) | SPR hTRIM21 (Response) [3] | Tm-shift mTRIM21 ([1]; 2 mM compound, 8 μM protein) | Tm-Shift hTRIM21 ([2]; 2 mM compound, 8 μM protein) | SPR mTRIM21 (Response) (His-mTRIM21 PRYSPRY; [4]) | SPR hTRIM21 (Response) [3, 4] |
| --- | --- | --- | --- | --- | --- | --- | --- | --- |
| CNC(=O)C1CNCCO1 (centres unmarked) [Fragment Z1636723439] | – | – | – | – | 0.4 °C | 0.1 °C | 142.5 | 46.15 |
| CN(C)C(=O)N1CCOCC12CCOC2 (centres unmarked) [Fragment Z1998104358] | 0 °C | 0.1 °C | 24.94 | 21.66 | – | – | – | – |
| CCc1csc(-c2c[nH]cn2)n1 [Fragment Z1530301542] | – | – | – | – | -0.1 °C | 0.1 °C | 39.06 | 45.06 |
| O=C(O)COc1ccc(F)cc1 [Fragment Z56978034] | -0.2 °C | 0 °C | 107.1 | 99.74 | – | – | – | – |
| c1cnc(N2CCC3(CCOC3)C2)cn1 (centres unmarked) [Fragment Z1401276297] | – | – | – | – | 0.2 °C | 0.6 °C | 374.2 | 640.3 |
| CCOc1ccccc1N1CCNCC1.Cl [Fragment Z425387594] | -0.1 °C | 0 °C | 98.47 | 61.98 | – | – | – | – |
| CCC(NC)c1ccncc1 (centres unmarked) [Fragment Z1250132788] | – | – | – | – | 0 °C | -0.1 °C | 53.11 | 50.74 |
| CS(=O)(=O)NCCc1ccccc1 [Fragment Z45617795] | – | – | – | – | -0.3 °C | -0.2 °C | 50.84 | 53.67 |
| O=C(c1csnn1)N1CCOCC1 [Fragment Z741055844] | – | – | – | – | -0.2 °C | -0.1 °C | 32.54 | 28.98 |
| CC#CCN(C)C1CCS(=O)(=O)CC1 [Fragment Z1318110042] | – | – | – | – | 0.1 °C | 0 °C | 68.46 | 20.83 |
| Cc1cc(Cn2nc(C)ccc2=O)on1 [Fragment Z1079512010] | – | – | – | – | -0.3 °C | -0.1 °C | 50.4 | 45.75 |
| CNS(=O)(=O)Cc1cc(C)on1 [Fragment Z763030030] | -0.2 °C | -0.1 °C | 42.23 | 44.17 | – | – | – | – |
| c1cc(NCC2CCCO2)ccn1 (centres unmarked) [Fragment Z1267882044] | – | – | – | – | 0 °C | -0.1 °C | 85.46 | 39.64 |
| Cc1nc2[nH]c(C(C)C)cc(=O)n2n1 [Fragment Z111634612] | – | – | – | – | -0.4 °C | -0.4 °C | 63.45 | 61.58 |
| NS(=O)(=O)c1ccccc1OC(F)F [Fragment Z1003146540] | – | – | – | – | -0.1 °C | 0.5 °C | 35.49 | 38.84 |
| CCn1cc(NC(=O)C2CCC2)cn1 [Fragment Z373768900] | -0.4 °C | -0.3 °C | 20.02 | 21.88 | – | – | – | – |
| OCc1cn(-c2ccc(Cl)cc2)nn1 [Fragment Z1374778753] | – | – | 169.5 | 114.8 | – | – | – | – |
| CCCc1cc(=O)oc2cc(OC(C)=O)ccc12 [Fragment Z29634868] | – | – | – | – | – | – | 78.57 | 95.03 |
| O=C(c1ccc2c(c1)OCO2)N1CCCCCC1 [Fragment Z31432226] | – | – | – | – | -0.6 °C | -0.8 °C | – | – |
